Measured values from ChEMBL document CHEMBL4422622, “Identification of Mineralocorticoid Receptor Modulators with Low Impact on Electrolyte Homeostasis but Maintained Organ Protection” (J Med Chem, 2019).
≈ marks a conversion by molar mass, not a printed value.

Tests used:
[1] = biological target: T1, Mineralocorticoid receptor (Homo sapiens, UniProt P08235)
T1 sequence (P08235 whole entry): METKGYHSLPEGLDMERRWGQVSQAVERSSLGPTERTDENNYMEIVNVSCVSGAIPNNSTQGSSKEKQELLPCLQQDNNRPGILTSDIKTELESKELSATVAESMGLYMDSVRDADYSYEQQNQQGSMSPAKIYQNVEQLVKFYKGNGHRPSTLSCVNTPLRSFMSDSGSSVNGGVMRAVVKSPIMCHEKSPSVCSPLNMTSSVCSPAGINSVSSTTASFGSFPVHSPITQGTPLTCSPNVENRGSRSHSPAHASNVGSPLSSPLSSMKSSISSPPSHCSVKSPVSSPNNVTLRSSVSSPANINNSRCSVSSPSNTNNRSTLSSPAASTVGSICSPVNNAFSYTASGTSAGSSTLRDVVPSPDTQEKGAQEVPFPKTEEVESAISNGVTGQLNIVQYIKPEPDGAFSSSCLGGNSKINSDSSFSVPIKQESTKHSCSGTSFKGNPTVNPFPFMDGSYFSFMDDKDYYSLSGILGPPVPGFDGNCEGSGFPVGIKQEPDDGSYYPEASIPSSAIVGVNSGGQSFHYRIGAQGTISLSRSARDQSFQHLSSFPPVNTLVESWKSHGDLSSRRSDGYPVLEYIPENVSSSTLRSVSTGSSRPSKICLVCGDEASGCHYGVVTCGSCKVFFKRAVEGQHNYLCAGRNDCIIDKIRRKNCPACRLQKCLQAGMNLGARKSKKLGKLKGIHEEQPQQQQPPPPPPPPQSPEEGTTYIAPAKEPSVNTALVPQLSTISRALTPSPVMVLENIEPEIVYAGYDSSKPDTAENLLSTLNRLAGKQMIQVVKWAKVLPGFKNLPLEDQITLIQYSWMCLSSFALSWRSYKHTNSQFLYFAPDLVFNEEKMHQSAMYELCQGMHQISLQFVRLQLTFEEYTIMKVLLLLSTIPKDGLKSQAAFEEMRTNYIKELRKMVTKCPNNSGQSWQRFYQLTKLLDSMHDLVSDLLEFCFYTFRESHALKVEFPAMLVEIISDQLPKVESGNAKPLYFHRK
Description: Displacement of [3H]-aldosterone to human mineralocorticoid receptor LBD by radiometric binding assay

[2] = Intrinsic clearance in human liver microsomes at 1 uM measured up to 30 mins in presence of NADPH by LC-MS/MS analysis; format: ADME, Microsome; conditions: read-out: CLH
Glucocorticoid receptor = biological target: T2, Glucocorticoid receptor (Homo sapiens, UniProt P04150)
T2 sequence (P04150 whole entry): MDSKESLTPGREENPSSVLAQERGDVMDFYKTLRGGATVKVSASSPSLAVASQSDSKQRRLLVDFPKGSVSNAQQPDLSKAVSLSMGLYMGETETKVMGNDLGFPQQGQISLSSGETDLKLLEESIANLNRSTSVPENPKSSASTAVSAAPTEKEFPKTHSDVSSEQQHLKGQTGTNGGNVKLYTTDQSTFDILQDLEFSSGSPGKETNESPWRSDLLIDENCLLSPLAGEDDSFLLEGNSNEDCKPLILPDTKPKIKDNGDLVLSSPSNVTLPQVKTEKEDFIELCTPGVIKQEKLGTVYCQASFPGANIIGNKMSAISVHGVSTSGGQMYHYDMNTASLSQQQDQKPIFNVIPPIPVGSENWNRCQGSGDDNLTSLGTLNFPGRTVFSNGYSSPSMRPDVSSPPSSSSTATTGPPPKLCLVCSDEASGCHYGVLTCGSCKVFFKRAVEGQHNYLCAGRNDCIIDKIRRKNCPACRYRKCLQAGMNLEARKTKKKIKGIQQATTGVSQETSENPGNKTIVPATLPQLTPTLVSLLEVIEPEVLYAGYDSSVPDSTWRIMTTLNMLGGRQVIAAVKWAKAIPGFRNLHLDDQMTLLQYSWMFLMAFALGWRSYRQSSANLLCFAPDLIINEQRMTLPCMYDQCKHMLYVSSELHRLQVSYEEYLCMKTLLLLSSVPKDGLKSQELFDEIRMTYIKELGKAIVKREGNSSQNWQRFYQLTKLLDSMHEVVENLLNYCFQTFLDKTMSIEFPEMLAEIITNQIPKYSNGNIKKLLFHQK
Description: Binding affinity to recombinant human GR LBD by fluormone GS red-fluorescence polarization assay

[3] = Octanol-water partitioning co-efficient, log D of the compound at pH 7.4 by LC/MS/MS analysis; format: physicochemical
Progesterone receptor = biological target: T3, Progesterone receptor (Homo sapiens, UniProt P06401); assay: Binding affinity to recombinant human progesterone receptor LBD by fluormone PL red-fluorescence polarization assay
T3 sequence (P06401 whole entry): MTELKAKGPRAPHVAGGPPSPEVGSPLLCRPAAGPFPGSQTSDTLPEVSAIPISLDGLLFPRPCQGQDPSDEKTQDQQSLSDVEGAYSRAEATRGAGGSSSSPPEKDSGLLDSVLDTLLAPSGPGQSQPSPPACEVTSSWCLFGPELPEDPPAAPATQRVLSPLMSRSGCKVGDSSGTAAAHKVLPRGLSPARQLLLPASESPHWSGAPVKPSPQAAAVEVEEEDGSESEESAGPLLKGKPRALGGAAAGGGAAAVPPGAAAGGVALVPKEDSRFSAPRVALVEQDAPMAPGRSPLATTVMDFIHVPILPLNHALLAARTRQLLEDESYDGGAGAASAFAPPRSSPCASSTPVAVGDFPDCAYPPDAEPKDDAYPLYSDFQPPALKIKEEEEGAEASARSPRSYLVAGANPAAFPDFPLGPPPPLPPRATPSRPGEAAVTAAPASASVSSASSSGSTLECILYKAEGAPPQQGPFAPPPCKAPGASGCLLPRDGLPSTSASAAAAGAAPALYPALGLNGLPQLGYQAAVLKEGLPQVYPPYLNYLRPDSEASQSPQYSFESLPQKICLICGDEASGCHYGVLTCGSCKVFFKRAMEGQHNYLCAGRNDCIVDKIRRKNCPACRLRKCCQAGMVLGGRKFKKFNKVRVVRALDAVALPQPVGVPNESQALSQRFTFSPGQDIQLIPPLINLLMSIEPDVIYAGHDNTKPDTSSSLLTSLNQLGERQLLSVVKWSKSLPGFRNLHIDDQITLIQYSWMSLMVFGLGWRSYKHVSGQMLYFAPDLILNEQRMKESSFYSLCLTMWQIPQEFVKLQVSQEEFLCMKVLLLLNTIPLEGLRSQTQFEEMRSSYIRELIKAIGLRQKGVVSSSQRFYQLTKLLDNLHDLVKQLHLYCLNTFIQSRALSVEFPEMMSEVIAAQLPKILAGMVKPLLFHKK

[4] = biological target: T1, Mineralocorticoid receptor; remark: listed apart in the source
Description: Antagonist activity at gal4-fused human mineralocorticoid receptor LBD expressed in UAS-MR-bla HEK293 cells by luciferase reporter gene assay

[5] = Kinetic solubility of compound at pH 7.4 after 24 hrs by shake-flask assay; format: physicochemical; conditions: buffer, read-out: -log(solubility) (converted)
[6] = Terminal half life in Han Wistar rat at 1.2 mg/kg, iv by LC-MS/MS analysis; format: ADME, organism-based; conditions: in vivo, read-out: beta t1/2 (converted)
[7] = Fraction unbound in Han Wistar rat plasma at 1 uM after 4 hrs by LC/MS/MS analysis; format: ADME, cell-free
Rattus norvegicus = assay: Induction of hyperkalemia in Sprague-Dawley rat fed on low salt diet for 72 hrs assessed as increase in Na+/K+ ratio in urine administered via oral gavage after 8 hrs; format: organism-based; conditions: in vivo
[8] = Intrinsic clearance in Han Wistar rat hepatocytes assessed per million cells at 1 uM after 4 hrs by LC/MS/MS analysis; format: ADME, cell-based, Hepatocyte; conditions: read-out: CLH
[9] = Clearance in Han Wistar rat at 1.2 mg/kg, iv by LC-MS/MS analysis; format: ADME, organism-based; conditions: in vivo
[10] = Oral bioavailability in Han Wistar rat at 2.1 mg/kg by LC-MS/MS analysis; format: ADME, organism-based; conditions: in vivo
[11] = Volume of distribution at steady state in Han Wistar rat at 1.2 mg/kg, iv by LC-MS/MS analysis; format: ADME, organism-based; conditions: in vivo, read-out: Vdss

Row | SMILES | Ki [1] [nM] | microsomal CLint at 1 µM [2] [µL/min/mg] | Ki (Glucocorticoid receptor) [nM] | logD [3] | Ki (Progesterone receptor) [nM] | IC50 [4] [nM] | solubility kinetic at 24 h [5] [µM] | half-life [6] [h] | fraction unbound at 4 h, 1 µM [7] | Activity (Rattus norvegicus) | hepatocyte CLint at 1 µM [8] [µL/min/1e6 cells] | clearance [9] [mL/min/kg] | bioavailability [10] [%] | Vd [11] [L/kg]
1 | O=C1COc2ccc(C(=O)N3c4ccc(F)cc4OC[C@@H]3CCO)cc2N1 | 200 | 15 | 1260 | 1.8 | 25100 | 501 | 1000 (≈ 372 µg/mL) | – | – | – | – | – | – | –
2 | C[C@H]1CCc2cc(F)ccc2N1C(=O)c1ccc2c(c1)NC(=O)CO2 | 126 | 190 | 2000 | 2.9 | > 50100 | 794 | 126 (≈ 42.8 µg/mL) | – | – | – | – | – | – | –
3 | CC(C)C[C@H]1COc2cc(F)ccc2N1C(=O)c1ccc2c(c1)NC(=O)CO2 | 2 | > 300 | 50.1 | 3.8 | 2510 | 63.1 | 39.8 (≈ 15.3 µg/mL) | – | – | – | – | – | – | –
4 | O=C(O)C[C@H]1COc2cc(Cl)ccc2N1C(=O)c1ccc2c(c1)NC(=O)CO2 | 158 | < 3 | 5010 | -0.5 | > 50100 | > 10000 | 1000 (≈ 403 µg/mL) | – | – | – | – | – | – | –
5 | O=C1COc2ccc(C(=O)N3c4ccc(Cl)cc4C[C@@H]3CCO)cc2N1 | > 10000 | 40 | > 15800 | 3.7 | > 50100 | > 10000 | 2 (≈ 0.744 µg/mL) | – | – | – | – | – | – | –
6 | C[C@H]1COc2cccnc2N1C(=O)c1ccc2c(c1)NC(=O)CO2 | 1260 | 6 | > 15800 | 1.3 | > 50100 | > 10000 | 1000 (≈ 325 µg/mL) | – | – | – | – | – | – | –
7 | CC1CCc2ccccc2N1S(=O)(=O)c1ccc2c(c1)NC(=O)CO2 (racemic) | 2000 | > 300 | – | 3.3 | – | 5010 | 20 (≈ 7.15 µg/mL) | – | – | – | – | – | – | –
8 | COC(=O)C[C@H]1COc2cc(F)ccc2N1C(=O)c1ccc2c(c1)NC(=O)CO2 | 63.1 | > 300 | – | 2.2 | – | 316 | 398 (≈ 159 µg/mL) | – | – | – | – | – | – | –
9 | COC(=O)[C@@H]1CC2=CC(=O)CC[C@]2(C)[C@@]23O[C@@H]2C[C@@]2(C)[C@@H](CC[C@@]24CCC(=O)O4)[C@H]13 [EPLERENONE] | – | 9 | – | 0.8 | – | – | 1000 (≈ 414 µg/mL) | 1.3 | 0.76 | Toxic | 5 | 17 | 16 | 1
10 | NCC[C@H]1COc2cc(F)ccc2N1C(=O)c1ccc2c(c1)NC(=O)CO2 | > 10000 | 12 | > 15800 | 0.2 | > 50100 | > 10000 | 50.1 (≈ 18.6 µg/mL) | – | – | – | – | – | – | –
11 | N#CC[C@H]1COc2ccccc2N1C(=O)c1ccc2c(c1)NC(=O)CO2 | 501 | 34 | – | 1.5 | – | 3980 | 794 (≈ 277 µg/mL) | – | – | – | – | – | – | –
12 | C[C@@H]1COc2cc(F)ccc2N1C(=O)c1ccc2c(c1)NC(=O)CO2 | – | 11 | – | 2.7 | > 50100 | – | – | – | – | – | – | – | – | –
13 | CC(C)C[C@H]1COc2cc(F)ccc2N1C(=O)c1ccc2c(c1)NC(=O)CC2 | 1000 | > 300 | 12600 | 3.6 | > 50100 | 2510 | 79.4 (≈ 30.4 µg/mL) | – | – | – | – | – | – | –
